Experimental data reported in patent publication US5583142A, “Analgesic and nootropic drugs” (priority 1992, dated 1996).
Values joined by “and” are separate entries in the source; they are usually repeats but may differ in a detail not shown here. Equal values may be shown once. Read-outs that look alike come from different tables or passages of the source.

Columns and labels:
[1] = type: in vivo, mouse; settings: for ANALGESIC ACTIVITY (degree of analgesia, latency on hot plate): max. dose not affecting mice behaviour; for analgesic effect (AUC up to 45 min) compared with reference analgesics: mouse hot plate, FIG. 5, always (s.c. and i.p.); for Efficacy as analgesic (Morphine = 100), AUC (Area Under Curve) / Efficacy as analgesic (Morphine = 100), M.E. (Maximum Analgesic Effect): in vivo
Description: (§1) The analgesic action was detected in mouse, rat, guinea pig and dog. The mouse was subjected to hot plate and writhing tests; the rat to tail-flick and paw-pressure tests; the guinea pig to paw-pressure test only; the dog to the test described by Vainio et al. [J. Vet. Pharmacol. Ther., 12, 225-231 (1989)] using an electric stimulation. Consequently, the claimed compounds were tested with pain being induced by stimuli of different nature: thermal (hot plate and tail flick), chemical (writhing by acetic acid), mechanical (paw pressure) and electrical (cutaneous stimulation).
(§2) Potency, efficacy and toxicity of SM21, PG9 and SM32 in comparison with
(§3) four principal reference analgesic drugs tested in mouse. As analgesic

in vivo = settings: mouse, sc
Text: as §2, §3

[2] = mouse rota-rod test (16 r.p.m.)
Text: All products tested to detect their antinociceptive activity had been previously tested by the rota-rod test to determine their maximum utilizable dose in analgesic tests. In fact, by this test it is possible to determine the highest dose of drug not impairing the normal performance of animals in a test that simultaneously evaluates motor coordination, equilibrium, resistance to fatigue, and muscle strength. This test is meant to evaluate the capability of mice to stay balanced on a rotating rod [cf. Vaught et al., Neuropharmacology, 24 (3) 211-216 (1985)].
The calculated doses were those used in the two analgesic tests on mice.

[3] = guinea-pig paw-pressure test; type: in vivo; settings: for paw-pressure: guinea-pig, 20 mg/kg i.p.
Description: as §1
Effect of SM21 and PG9 in guineapig pawpressure test. *P < 0.01; P < 0.0
in comparison with saline controls. The number of guineapig is in […]

[4] = mouse acetic acid writhing test; type: in vivo; settings: for efficacy in writhing test, in words / number of writhes / Efficacy as analgesic (Morphine = 100) / percent inhibition: mouse; for number of writhes / Efficacy as analgesic (Morphine = 100) / percent inhibition: 40 mg/kg s.c.; for Efficacy as analgesic (Morphine = 100) / percent inhibition: writhing; for ED50: sc, mouse writhing
Description: as §1
The claimed molecules, chosen as examples, were also assayed in mice by the writhing test (Table 4). The test is meant to evaluate the products capability to prevent mice writhes ensuing abdominal pains caused by i.p. injection of a 0.6% aqueous solution of acetic acid.
Acetic acid solution = 0.6% v/v.

rat paw-pressure test = type: in vivo; settings: for paw-pressure: 20 mg/kg i.p.
Description: as §1
(§4) As already mentioned, the claimed products were assayed also in rat by the paw-pressure and tail-flick tests.
(§5) Both tests were carried out with the max. doses not impairing the rats normal behaviour. […] The painful stimulus utilized in the paw-pressure test involved the animal consciousness to a much greater extent than the stimulus used in the tail-flick test, in fact, the type and anatomic localization of the latter mainly involved a spinal response.
(§6) Both tests on rats were carried out with the max. doses not altering the behaviour of the treated animals.

rat tail-flick test = type: in vivo; settings: for tail-flick: 20 mg/kg i.p.
Description: as §1, §4, §5, §6
The test was performed using th

[5] = paw-pressure test in rats with a lesion in the nucleus basalis magnocellularis (NBM); type: in vivo, rat; settings: 30 mg/kg i.p.
Text: 3. […] In fact, as known, the magnocellular basal nucleus destruction causes the degeneration of most central cholinergic system.

[6] = mouse, 40 mg/kg i.p., 15 min after treatment
[7] = mouse, 40 mg/kg i.p., 30 min after treatment
[8] = mouse, 40 mg/kg i.p., 45 min after treatment
[9] = mouse, 40 mg/kg s.c., 15 min after treatment
[10] = mouse, 40 mg/kg s.c., 30 min after treatment
[11] = mouse, 40 mg/kg s.c., 45 min after treatment
[12] = 40 mg/kg s.c., 15 min after treatment
[13] = 40 mg/kg s.c., 30 min after treatment
[14] = 40 mg/kg s.c., 45 min after treatment
[15] = 50 mg/kg s.c., 15 min after treatment
[16] = 50 mg/kg s.c., 30 min after treatment
[17] = 50 mg/kg s.c., 45 min after treatment

Compound: CC(C(=O)O[C@H]1C[C@H]2CC[C@@H](C1)N2C)c1ccc(Br)cc1 (stereo partly drawn) [PG-9, 3α-Tropanyl 2-(p-bromophenyl)-propionate]
- ANALGESIC ACTIVITY (degree of analgesia, latency on hot plate) [1]: ++++ (Latency above 35" ++++-)
- analgesic activity in mouse, in words ([1]; mouse): active in mouse
- analgesic effect (AUC up to 45 min) compared with reference analgesics [1]: always more active than all reference analgesics including morphine
- Efficacy as analgesic (Morphine = 100), AUC (Area Under Curve) ([1]; mouse): 123
- Efficacy as analgesic (Morphine = 100), M.E. (Maximum Analgesic Effect) ([1]; mouse): 106
- hot-plate latency [1, 6]: 42.5 ± 2.5 s
- hot-plate latency [1, 7]: 39.7 ± 2.1 s
- hot-plate latency [1, 8]: 26.7 ± 3.5 s
- hot-plate latency [1, 9]: 39.3 ± 3.4 s
- hot-plate latency [1, 10]: 35.1 ± 2.8 s
- hot-plate latency [1, 11]: 33.3 ± 2.6 s
- LD50 (in vivo): 373 µmol/kg
- rota-rod performance (number of falls in 30 s) [2, 12]: 1.2 ± 0.5 falls in 30 s
- rota-rod performance (number of falls in 30 s) [2, 13]: 0.8 ± 0.4 falls in 30 s
- rota-rod performance (number of falls in 30 s) [2, 14]: 1.3 ± 0.5 falls in 30 s
- rota-rod performance (number of falls in 30 s) ([2]; 45 mg/kg s.c., 15 min after treatment): 2.4 ± 0.8 falls in 30 s
- rota-rod performance (number of falls in 30 s) ([2]; 45 mg/kg s.c., 30 min after treatment): 1.3 ± 0.5 falls in 30 s
- rota-rod performance (number of falls in 30 s) ([2]; 45 mg/kg s.c., 45 min after treatment): 0.8 ± 0.4 falls in 30 s
- rota-rod performance (number of falls in 30 s) [2, 15]: 2.2 ± 0.6 falls in 30 s
- rota-rod performance (number of falls in 30 s) [2, 16]: 2.7 ± 0.6 falls in 30 s
- rota-rod performance (number of falls in 30 s) [2, 17]: 2.8 ± 0.4 falls in 30 s
- analgesic activity in guinea pig, in words ([3]; guinea pig): active in guinea pig
- paw-pressure ([3]; 15 min after treatment): 94.6 ± 4.4 g
- paw-pressure ([3]; 30 min after treatment): 83.0 ± 6.8 g
- paw-pressure ([3]; 45 min after treatment): 42.8 ± 5.6 g
- efficacy in writhing test, in words [4]: less efficacious than ketorolac, are more efficacious than morphine
- number of writhes [4]: 6.1 ± 1.6
- Efficacy as analgesic (Morphine = 100) [4]: 110
- percent inhibition [4]: 82.2%
- ED50 [4]: 16.3 mg/kg and 34.8 µmol/kg
- activity in paw-pressure test, in words (rat paw-pressure test): inactive in rat
- paw-pressure (rat paw-pressure test; 15 min after treatment): 62.2 ± 6.0 g
- paw-pressure (rat paw-pressure test; 30 min after treatment): 62.4 ± 4.8 g
- paw-pressure (rat paw-pressure test; 45 min after treatment): 62.8 ± 4.2 g
- activity in tail-flick test, in words (rat tail-flick test): inactive
- tail-flick (rat tail-flick test; 15 min after treatment): 3.3 ± 0.2 s
- tail-flick (rat tail-flick test; 30 min after treatment): 2.9 ± 0.4 s
- tail-flick (rat tail-flick test; 45 min after treatment): 3.0 ± 0.3 s

Compound: CCC(Oc1ccc(Cl)cc1)C(=O)O[C@H]1C[C@H]2CC[C@@H](C1)N2C (stereo partly drawn) [SM-21, 3α-Tropanyl 2-(p-chlorophenoxy)-butyrate]
- ANALGESIC ACTIVITY (degree of analgesia, latency on hot plate) [1]: ++++ (Latency above 35" ++++-)
- analgesic effect (AUC up to 45 min) compared with reference analgesics [1]: always more active than all reference analgesics including morphine
- Efficacy as analgesic (Morphine = 100), AUC (Area Under Curve) ([1]; mouse): 111
- Efficacy as analgesic (Morphine = 100), M.E. (Maximum Analgesic Effect) ([1]; mouse): 111
- hot-plate latency [1, 6]: 36.7 ± 2.1 s
- hot-plate latency [1, 7]: 32.0 ± 2.2 s
- hot-plate latency [1, 8]: 25.9 ± 2.7 s
- hot-plate latency [1, 9]: 38.9 ± 2.9 s
- hot-plate latency [1, 10]: 31.3 ± 2.5 s
- hot-plate latency [1, 11]: 29.4 ± 3.3 s
- LD50 (in vivo): 883 µmol/kg
- rota-rod performance (number of falls in 30 s) ([2]; 30 mg/kg s.c., 15 min after treatment): 1.9 ± 0.3 falls in 30 s
- rota-rod performance (number of falls in 30 s) ([2]; 30 mg/kg s.c., 30 min after treatment): 1.5 ± 0.5 falls in 30 s
- rota-rod performance (number of falls in 30 s) ([2]; 30 mg/kg s.c., 45 min after treatment): 1.2 ± 0.5 falls in 30 s
- rota-rod performance (number of falls in 30 s) [2, 12]: 1.6 ± 0.6 falls in 30 s
- rota-rod performance (number of falls in 30 s) [2, 13]: 1.2 ± 0.4 falls in 30 s
- rota-rod performance (number of falls in 30 s) [2, 14]: 1.2 ± 0.4 falls in 30 s
- rota-rod performance (number of falls in 30 s) [2, 15]: 2.2 ± 0.4 falls in 30 s
- rota-rod performance (number of falls in 30 s) [2, 16]: 2.6 ± 0.5 falls in 30 s
- rota-rod performance (number of falls in 30 s) [2, 17]: 2.4 ± 0.5 falls in 30 s
- rota-rod performance (number of falls in 30 s) ([2]; 60 mg/kg s.c., 15 min after treatment): 3.5 ± 0.5 falls in 30 s
- rota-rod performance (number of falls in 30 s) ([2]; 60 mg/kg s.c., 30 min after treatment): 4.3 ± 0.4 falls in 30 s
- rota-rod performance (number of falls in 30 s) ([2]; 60 mg/kg s.c., 45 min after treatment): 4.4 ± 0.6 falls in 30 s
- paw-pressure ([3]; 15 min after treatment): 92.8 ± 4.0 g
- paw-pressure ([3]; 30 min after treatment): 110.0 ± 6.6 g
- paw-pressure ([3]; 45 min after treatment): 64.0 ± 6.2 g
- efficacy in writhing test, in words [4]: slightly inferior to morphine
- number of writhes [4]: 11.4 ± 1.6
- Efficacy as analgesic (Morphine = 100) [4]: 90
- percent inhibition [4]: 67.3%
- ED50 [4]: 21.5 mg/kg and 47.4 µmol/kg
- activity in paw-pressure test, in words (rat paw-pressure test): almost equivalent analgesia
- paw-pressure (rat paw-pressure test; 15 min after treatment): 93.1 ± 4.0 g
- paw-pressure (rat paw-pressure test; 30 min after treatment): 93.4 ± 5.4 g
- paw-pressure (rat paw-pressure test; 45 min after treatment): 92.3 ± 6.4 g
- activity in tail-flick test, in words (rat tail-flick test): active
- tail-flick (rat tail-flick test; 15 min after treatment): 3.6 ± 0.2 s
- tail-flick (rat tail-flick test; 30 min after treatment): 4.6 ± 0.4 s
- tail-flick (rat tail-flick test; 45 min after treatment): 4.9 ± 0.4 s
- paw-pressure ([5]; lesioned (NBM) rats, 15 min after treatment): 75.1 ± 5.8 g
- paw-pressure ([5]; lesioned (NBM) rats, 30 min after treatment): 68.3 ± 4.9 g
- paw-pressure ([5]; lesioned (NBM) rats, 45 min after treatment): 67.2 ± 3.9 g
- paw-pressure ([5]; naive rats, 15 min after treatment): 109.6 ± 4.8 g
- paw-pressure ([5]; naive rats, 30 min after treatment): 87.5 ± 5.2 g
- paw-pressure ([5]; naive rats, 45 min after treatment): 67.8 ± 4.4 g
- paw-pressure ([5]; sham rats, 15 min after treatment): 104.9 ± 4.6 g
- paw-pressure ([5]; sham rats, 30 min after treatment): 93.4 ± 5.3 g
- paw-pressure ([5]; sham rats, 45 min after treatment): 63.9 ± 5.1 g
